Measurements: patent US8546338B2, “Self-assembling hydrogels based on dicephalic peptide amphiphiles” (Johnson & Johnson Consumer Companies, Inc., priority 2010, dated 2013)

What was measured:
[1] = Gelation experiments: inversion test for self-supporting hydrogels; type: physicochemical; details: for Gelation (self-supporting gel on inversion), Calcium added: DMEM plus 10 μl of 100 mg/cc calcium chloride solution; for Concentration at which gel forms, Calcium added: DMEM with calcium chloride added; for Gelation (self-supporting gel on inversion), DMEM: DPA solution in water mixed 1:1 with DMEM, no calcium added; for Minimal concentration at which gel formed: in DMEM with calcium added; for Gelation (self-supporting gel on inversion), Water: in water, final concentrations 1, 2 and 4 weight percent tested
Procedure: (§1) Inversion tests were performed to determine qualitatively under which conditions the various DPAs formed self-supporting hydrogels. The various types of DPAs were tested by dissolving them in ultrapure water (>18 MΩ resistivity) at double the desired final concentration followed by mixing in a 1:1 ratio with different liquid mediums. Gelation was deemed to have occurred if the gel supported its own weight upon inverting the vial (FIG. 3A and FIG. 3B). Gelation was tested at final concentrations of 1, 2 and 4 weight percent. We tested phosphate buffered saline (PBS), and Dulbecco's modified eagle media (DMEM) as liquid medium. Typical scale is 100 μl each of DPA solution in water and mixing medium but other scales have been tested. Finally, if no spontaneous gelation occurs, 10 μl of 100 mg/cc calcium chloride solution was added to induce gelation.

[2] = Oscillating rheology, time sweep (kinetics of formation); type: physicochemical
Procedure: Oscillating rheology by the parallel plates method (radius=25 mm) was performed on 400 μl gels to assess the mechanical strengths of gels. Time sweeps were performed to evaluate kinetics of formation at a constant strain rate of 1% and frequency of 1 rad/s. Strain sweeps were performed ranging from 1-100% strain in increments of 2% at a constant frequency of 1 rad/s. Cross-over of G′ and G″ was used to determine the gel point and point of breakdown. Time sweeps were initiated immediately after mixing the solutions that lead to DPA hydrogel formation. In the strain sweeps, the gels were allowed to form on the plate for 30 minutes before the measurement is initiated.
The gelation process was initiated on the plate at 25° C. by the addition of 10 μl of 100 mg/ml calcium chloride solution to a solution of the DPA in DMEM.

Sprague-Dawley rats = test: Biocompatibility study, gel injected into intra-gluteal muscle pocket; type: in vivo; details: rat; for Tissue response (histology): harvest at 3, 7 and 28 days
Procedure: A biocompatibility study was performed on Gly-Val-Ala-Val-Ala-Val-Ala-Glu-Gly-Glu (SEQ ID NO: 4), Gly-Phe-Gly-Phe-Gly-Phe-Gly-Glu-Gly-Glu (SEQ ID NO: 5) and Gly-Phe-Gly-Phe-Gly-Phe-Gly-Gln-Gln-Ser (SEQ ID NO: 8) DPAs. Lyophilized DPA powders were e-beam sterilized in 1.5 cc polypropylene cryovials at 15 KGy. Gels were pre-formed in 1 cc syringes by mixing a 4 wt % DPA solution in water for injection in a 1:1 ratio with DMEM followed by immediate aspiration into the syringe. In the case of the formulations with the Glu-Gly-Glu (SEQ ID NO: 27) sequence in the solubility enhancing region, 10 μl of a sterile 100 mg/cc calcium chloride solution was mixed in before aspiration into the syringe. An intra-gluteal muscle pocket was created in Sprague-Dawley rats after which 100 μl of gel was injected using a catheter fitted to the syringe. Subsequently, the pocket was closed with polyglactin 910 sutures sold under the tradename VICRYL (Ethicon, Somerville, N.J.). Tissue was harvested at 3, 7 and 28 days after implantation.

[3] = Cell viability of encapsulated hUTCs in DPA gels (Live/Dead); type: cell-based, human; details: human, human umbilical cord cells (hUTCs) encapsulated in DPA gel; 2% DPA, 100,000 cells, calcium chloride added, after 7 days of culture, Live/Dead; read-out: Viability of hUTC cells in the gels
Procedure: The viability and proliferation of cells in the gels was evaluated by encapsulating human umbilical cord cells (hUTCs) in the gels. hUTCs were isolated as described in U.S. Pat. No. 7,510,873. Cells were thawed from storage and cultured for four days in Hayflick media. After four days, the cells were trypsinized and counted by the Guava ViaCount methodology (Millipore, Billerica, Mass.). Cells were re-suspended in Hayflick media at a density of 1,000,000 cells/ml. Encapsulation of the cells in the gels was achieved by adding 100 μl cell suspension to 100 μl of a 4 wt % DPA solution in ultrapure in a 24 well plate, resulting in a final DPA concentration of 2%. The gels were incubated for 1 h at 37° C., 5% CO2 after which 1000 μl media was added on top of the gel. Cells were incubated at 37° C., 5% CO2. Every 3-4 days of culture, 500 μl media was replaced.
After mixing of the cell suspension and 4% DPA solution by pipetting up and down, the protocol described above was modified by adding 10 μl 100 mg/ml calcium chloride solution upon which gelation occurred. Final concentrations are 2% in DPA and 100,000 cells. Control gels without cells were prepared by using pure media and additional cell only and cells with calcium chloride controls were prepared as standard 2D culture. After 7 days of culture, the gels were assayed with Live/Dead assay for cell viability and Invitrogen CyQuant GR assay for cell proliferation (Invitrogen, Carlsbad, Calif.). The Live/Dead was performed as described in the provided protocol but at half the […] concentration to reduce non-specific fluorescence due to dye absorption. […] The cells in the gels contained a lot of viable cells (FIG. 410). No dead cells could be observed in the gels. Therefore, the viability of these cells in the gels is very high (>95%).
In a second experiment, 100,000 hUTC cells were encapsulated in 2 wt % Gly-Phe-Gly-Phe-Gly-Phe-Gly-Gln-Gln-Ser (SEQ ID NO: 8) DPA gels. The cells were cultured for 3 weeks and cells were assessed after 1, 2 and 3 weeks with Live/Dead.

[4] = Dissolution of DPA in ultrapure water; type: physicochemical; details: ultrapure water (>18 MΩ resistivity)
Procedure: as §1

[5] = Titration of DPA acid groups with calcium ions; type: physicochemical; details: calcium titrated down from 16 to 1 equivalent by halving
Description: The […] (SEQ ID NO: 3) DPA was titrated with calcium ions to determine the number of acid groups that required ion complexation in order for gelation to occur. Theoretically, there are eight acid groups (four per head group) that could be involved in the gelation process (FIG. 4).

[6] = 2 wt % DPA in DMEM, calcium chloride added, 25° C.

| Solubility in ultrapure water [4] | SMILES | Gelation (self-supporting gel on inversion), Calcium added [1] | Concentration at which gel forms, Calcium added [1] | Gelation (self-supporting gel on inversion), DMEM [1] | Minimal concentration at which gel formed [1] | Gelation (self-supporting gel on inversion), Water [1] | G′ after 10 minutes [2, 6] | other results |
| --- | --- | --- | --- | --- | --- | --- | --- | --- |
|  | CCCCCCCCCCCCCCCC(=O)NC(C(=O)NCC(=O)N[C@@H](Cc1ccccc1)C(=O)NCC(=O)N[C@@H](Cc1ccccc1)C(=O)NCC(=O)N[C@@H](Cc1ccccc1)C(=O)NCC(=O)N[C@@H](CCC(=O)O)C(=O)NCC(=O)N[C@@H](CCC(=O)O)C(=O)O)C(=O)NCC(=O)N[C@@H](Cc1ccccc1)C(=O)NCC(=O)N[C@@H](Cc1ccccc1)C(=O)NCC(=O)N[C@@H](Cc1ccccc1)C(=O)NCC(=O)N[C@@H](CCC(=O)O)C(=O)NCC(=O)N[C@@H](CCC(=O)O)C(=O)O [Gly-Phe-Gly-Phe-Gly-Phe-Gly-Glu-Gly-Glu] | Yes | 1 wt % | No | 1 weight percent | No | 4,000 Pa | G′ after 10 minutes ([2]; 1 wt % DPA in DMEM, calcium chloride added, 25° C.): 300 Pa; Estimated final strength (extrapolation of the curve) ([2]; 2 wt % DPA in DMEM, calcium chloride added): ~10,000 Pa; G′ (strength) after 1 hour [2, 6]: 7,200 Pa; G′ after temperature raised to 37° C. ([2]; 2 wt % DPA, after 1 hour, temperature raised from 25° C. to 37° C.): 5,000 Pa; Gross observations (Sprague-Dawley rats; in vivo): some fluid buildup at day 3; viability at 168 h [3]: > 95% |
|  | CCCCCCCCCCCCCCCC(=O)NC(C(=O)NCC(=O)N[C@H](C(=O)N[C@@H](C)C(=O)N[C@H](C(=O)N[C@@H](C)C(=O)N[C@H](C(=O)N[C@@H](C)C(=O)N[C@@H](CCC(=O)O)C(=O)NCC(=O)N[C@@H](CCC(=O)O)C(=O)O)C(C)C)C(C)C)C(C)C)C(=O)NCC(=O)N[C@H](C(=O)N[C@@H](C)C(=O)N[C@H](C(=O)N[C@@H](C)C(=O)N[C@H](C(=O)N[C@@H](C)C(=O)N[C@@H](CCC(=O)O)C(=O)NCC(=O)N[C@@H](CCC(=O)O)C(=O)O)C(C)C)C(C)C)C(C)C [Gly-Val-Ala-Val-Ala-Val-Ala-Glu-Gly-Glu] | Yes | 2 wt % | No | 2 weight percent | No | 140 Pa | Gross observations (Sprague-Dawley rats; 100 μl gel, intra-gluteal muscle pocket, day 3, no longer observed at other time points): some fluid buildup at day 3; Tissue response (histology) (Sprague-Dawley rats; 100 μl gel, intra-gluteal muscle pocket): some necrosis of the underlying tissue layer was observed; Tissue response (histology) (Sprague-Dawley rats; 100 μl gel, intra-gluteal muscle pocket, listed as Val-Ala-Val-Ala-Val-Ala-Glu-Gly-Glu (SEQ ID NO: 39)): necrosis of the underlying muscle tissue; viability at 168 h, 2 % [3]: > 95% |
| could not be solubilized | CCCCCCCCCCCCCCCC(=O)NC(C(=O)N[C@@H](Cc1ccccc1)C(=O)NCC(=O)N[C@@H](Cc1ccccc1)C(=O)NCC(=O)N[C@@H](Cc1ccccc1)C(=O)NCC(=O)N[C@@H](CCCCN)C(=O)N[C@@H](C)C(=O)O)C(=O)N[C@@H](Cc1ccccc1)C(=O)NCC(=O)N[C@@H](Cc1ccccc1)C(=O)NCC(=O)N[C@@H](Cc1ccccc1)C(=O)NCC(=O)N[C@@H](CCCCN)C(=O)N[C@@H](C)C(=O)O [Phe-Gly-Phe-Gly-Phe-Gly-Lys-Ala] |  |  |  |  |  |  |  |
|  | CCCCCCCCCCCCCCCC(=O)NC(C(=O)N[C@H](C(=O)N[C@@H](C)C(=O)N[C@H](C(=O)N[C@@H](C)C(=O)N[C@H](C(=O)N[C@@H](C)C(=O)N[C@@H](CCC(=O)O)C(=O)N[C@@H](CCC(=O)O)C(=O)N[C@@H](CCC(=O)O)C(=O)O)C(C)C)C(C)C)C(C)C)C(=O)N[C@H](C(=O)N[C@@H](C)C(=O)N[C@H](C(=O)N[C@@H](C)C(=O)N[C@H](C(=O)N[C@@H](C)C(=O)N[C@@H](CCC(=O)O)C(=O)N[C@@H](CCC(=O)O)C(=O)N[C@@H](CCC(=O)O)C(=O)O)C(C)C)C(C)C)C(C)C [Val-Ala-Val-Ala-Val-Ala-Glu-Glu-Glu] | Yes | 2 wt % | No | 2 weight percent | No |  | Transition point between stable gel formation and no or weak gel formation [5]: between two and one equivalent of calcium |
| could not be solubilized | CCCCCCCCCCCCCCCC(=O)NC(C(=O)N[C@H](C(=O)N[C@@H](C)C(=O)N[C@H](C(=O)N[C@@H](C)C(=O)N[C@H](C(=O)N[C@@H](C)C(=O)N[C@@H](CCCCN)C(=O)N[C@@H](C)C(=O)O)C(C)C)C(C)C)C(C)C)C(=O)N[C@H](C(=O)N[C@@H](C)C(=O)N[C@H](C(=O)N[C@@H](C)C(=O)N[C@H](C(=O)N[C@@H](C)C(=O)N[C@@H](CCCCN)C(=O)N[C@@H](C)C(=O)O)C(C)C)C(C)C)C(C)C [Val-Ala-Val-Ala-Val-Ala-Lys-Ala] |  |  |  |  |  |  |  |
